Here are results for four compounds from PMC6028903, “Solubility Thermodynamics of CyMe 4 -BTBP in Various Diluents Mixed with TBP” (Journal of Solution Chemistry, 2018).

In brackets after ≈: the same amount, converted by molar mass. Read-outs that look alike come from different tables or passages of the source. Marks after values point to notes of the source that are not given here.

Data set [1] can be described thus: Solubility of CyMe4-BTBP in GANEX solvents (70% vol diluent, 30% vol TBP), UV-VIS of the Fe2+ complex. The class given is physicochemical. The settings on record: organic solvent or mixture, thermodynamic from solid.
Data set [2] is described as follows: Dissolution thermodynamics of CyMe4-BTBP (van't Hoff linear fit and heat capacity calculation). The note with it: for c (288 K), calculated CyMe 4 -BTBP concentration / c (298 K), calculated CyMe 4 -BTBP concentration / c (308 K), calculated CyMe 4 -BTBP concentration: calculated from linear fits; for ΔG^0 (288 K) / ΔG^0 (298 K) / ΔG^0 (308 K): from linear fits; for ΔH^0 / ΔS^0: calculated using ΔCp; for ΔH^0 linear / ΔS^0 linear: linear fit. The class given is physicochemical.

For data set [3] the following is noted: 10 mmol/L CyMe4-BTBP, cited from earlier work.
On the set-up of data set [4]: method as in doi:10.1080/07366299.2011.539462. The note with it: cited from earlier work.
A short description of data set [5]: Surface tension against air (du Noüy ring method). The settings on record: 294 K, 0.1 MPa. The class given is physicochemical. The procedure:
(§1) The density, ρ , and surface tension, γ , against air (using the du Noüy ring method) for the different solvents was measured at room temperature (293–295 K) using a tensiometer (Sigma 700, Attension). The surface tensiometer ring was lowered into the organic phase until it was totally immersed. The tensiometer then measured the surface tension automatically by slowly pulling out the ring of the organic phase and measuring the force required to detach the ring from the organic surface. The density was measured using the same tensiometer and a calibrated density probe.

A short description of data set [6]: Density (tensiometer with density probe). The class given is physicochemical. The note with it: 294 K, 0.1 MPa. The procedure: as §1
For data set [7] the following is noted: literature; cited from earlier work.
For data set [8] the following is noted: literature; cited from earlier work. This is another data set of the same source.
On the set-up of data set [9]: method as in earlier work. The settings on record: literature; cited from earlier work.
The conditions of data set [10]: 298 K; cited from earlier work.
The mark [11] stands for this setting: Cyclohex./TBP b, pre-equilibrated with HNO3.
Setting [12] is: Cyclohex./TBP b, pre-equilibrated.
Where [13] appears, read: FS-13/TBP b, pre-equilibrated with HNO3.
Where [14] appears, read: Octanol/TBP b, pre-equilibrated with HNO3.
[15] abbreviates: Octanol/TBP b, pre-equilibrated.

The term solubility denotes how much of the substance goes into solution per volume. Take `CC1(C)CCC(C)(C)c2nc(-c3cccc(-c4cccc(-c5nnc6c(n5)C(C)(C)CCC6(C)C)n4)n3)nnc21` [CyMe 4 -BTBP, 6,6′-bis(5,5,8,8-tetramethyl-5,6,7,8-tetrahydrobenzo[1,2,4]triazin-3-yl)[2,2′]bipyridine]: the solubility at 3 days in data set [1] (GANEX solvent 1-octanol/TBP, 25 °C, Octanol/TBP, 70% vol diluent and 30% vol TBP, 298 K, read-out: CyMe 4 -BTBP solubility at 298 K) turned out to be 13 mM (≈ 6.95 mg/mL); in [1] (GANEX solvent FS-13/TBP, 25 °C, FS-13/TBP, 70% vol diluent and 30% vol TBP, 298 K, read-out: CyMe 4 -BTBP solubility at 298 K), 130 mM (≈ 69.5 mg/mL); in data set [1] (GANEX solvent FS-13/TBP, 70% vol FS-13 and 30% vol TBP, 4 mol/L NaCl in Milli-Q water instead of nitric acid, single sample, read-out: CyMe 4 -BTBP solubility), 20 mM (≈ 10.7 mg/mL); in [1] (GANEX solvent FS-13/TBP, 70% vol FS-13 and 30% vol TBP, 4 mol/L hydrochloric acid instead of nitric acid, single sample, read-out: CyMe 4 -BTBP solubility), 30 mM (≈ 16 mg/mL); in data set [1] (GANEX solvent FS-13/TBP, 70% vol FS-13 and 30% vol TBP, Milli-Q water instead of nitric acid, single sample, read-out: CyMe 4 -BTBP solubility), 15 mM (≈ 8.02 mg/mL); in data set [1] (GANEX solvent cyclohexanone/TBP, 25 °C, Cyclohex./TBP, 70% vol diluent and 30% vol TBP, 298 K, read-out: CyMe 4 -BTBP solubility at 298 K), 180 mM (≈ 96.2 mg/mL). Further, the “c (288 K), calculated CyMe 4 -BTBP concentration” value in data set [2] (Cyclohex./TBP a, pristine) is given as 13 mmol · L ^-1; in data set [2] (setting [12]), 160 mmol · L ^-1; in data set [2] (FS-13/TBP a, pristine) it was 14 mmol · L ^-1; in [2] (FS-13/TBP b, pre-equilibrated), 90 mmol · L ^-1; in [2] (Octanol/TBP a, pristine), 3.4 mmol · L ^-1; in data set [2] (setting [15]), 11 mmol · L ^-1. Moreover, the “ΔG^0 (288 K)” value in data set [2] (Cyclohex./TBP a, pristine) is 10.5 kJ · mol ^-1; in [2] (setting [12]), 4.4 kJ · mol ^-1; in data set [2] (FS-13/TBP a, pristine), 10.3 kJ · mol ^-1; in data set [2] (FS-13/TBP b, pre-equilibrated), 5.8 kJ · mol ^-1; in data set [2] (Octanol/TBP a, pristine), 13.6 kJ · mol ^-1; in data set [2] (setting [15]), 10.9 kJ · mol ^-1. Besides, the “c (298 K), calculated CyMe 4 -BTBP concentration” value is listed as 27 mmol · L ^-1 in data set [2] (Cyclohex./TBP a, pristine); 190 mmol · L ^-1 in [2] (setting [12]); 16 mmol · L ^-1 in data set [2] (FS-13/TBP a, pristine); 130 mmol · L ^-1 in data set [2] (FS-13/TBP b, pre-equilibrated); 4.3 mmol · L ^-1 in data set [2] (Octanol/TBP a, pristine); 14 mmol · L ^-1 in data set [2] (setting [15]). The “ΔG^0 (298 K)” value in data set [2] (Cyclohex./TBP a, pristine) is given as 8.9 kJ · mol ^-1; in [2] (setting [12]), 4.1 kJ · mol ^-1; in [2] (FS-13/TBP a, pristine), 10.3 kJ · mol ^-1; in data set [2] (FS-13/TBP b, pre-equilibrated), 5.1 kJ · mol ^-1; in data set [2] (Octanol/TBP a, pristine) it was 13.4 kJ · mol ^-1; in [2] (setting [15]), 10.6 kJ · mol ^-1. Further, the “c (308 K), calculated CyMe 4 -BTBP concentration” value is reported as 56 mmol · L ^-1 in data set [2] (Cyclohex./TBP a, pristine); 230 mmol · L ^-1 in [2] (setting [12]); 17 mmol · L ^-1 in data set [2] (FS-13/TBP a, pristine); 180 mmol · L ^-1 in [2] (FS-13/TBP b, pre-equilibrated); 5.5 mmol · L ^-1 in data set [2] (Octanol/TBP a, pristine); 18 mmol · L ^-1 in data set [2] (setting [15]). In addition, the “ΔG^0 (308 K)” value in [2] (Cyclohex./TBP a, pristine) was 7.4 kJ · mol ^-1; in [2] (setting [12]) it was 3.8 kJ · mol ^-1; in data set [2] (FS-13/TBP a, pristine) it was 10.4 kJ · mol ^-1; in data set [2] (FS-13/TBP b, pre-equilibrated), 4.4 kJ · mol ^-1; in data set [2] (Octanol/TBP a, pristine) it was 13.3 kJ · mol ^-1; in data set [2] (setting [15]) it was 10.2 kJ · mol ^-1. The “ΔH^0” value in data set [2] (Cyclohex./TBP a, pristine) is on record as 53 kJ · mol ^-1; in [2] (setting [11]), 15 kJ · mol ^-1; in data set [2] (FS-13/TBP a, pristine, 288, 298, 308 K), 8 kJ · mol ^-1; in data set [2] (setting [13]), 27 kJ · mol ^-1; in data set [2] (Octanol/TBP a, pristine), 17 kJ · mol ^-1; in data set [2] (setting [14]) it was 21 kJ · mol ^-1. In addition, the “ΔS^0” value in data set [2] (Cyclohex./TBP a, pristine) is recorded as 150 J · mol ^-1· K ^-1; in data set [2] (setting [11]), 38 J · mol ^-1· K ^-1; in data set [2] (setting [13]) it was 72 J · mol ^-1· K ^-1; in data set [2] (Octanol/TBP a, pristine), 14 J · mol ^-1· K ^-1; in data set [2] (setting [14]), 33 J · mol ^-1· K ^-1. Also, the “ΔH^0 linear” value in data set [2] (Cyclohex./TBP a, pristine) is 54.4 ± 2.6 kJ · mol ^-1; in [2] (setting [11]) it was 13.3 ± 0.5 kJ · mol ^-1; in data set [2] (FS-13/TBP a, pristine), 8.3 ± 0.6 kJ · mol ^-1; in data set [2] (setting [13]), 26.6 ± 0.3 kJ · mol ^-1; in data set [2] (Octanol/TBP a, pristine) it was 18.0 ± 1.1 kJ · mol ^-1; in data set [2] (setting [14]), 20.0 ± 1.0 kJ · mol ^-1. For the same compound, the “ΔS^0 linear” value in [2] (Cyclohex./TBP a, pristine) is reported as 152.4 ± 1.9 J · mol ^-1· K ^-1; in data set [2] (setting [11]), 30.8 ± 0.3 J · mol ^-1· K ^-1; in data set [2] (setting [13]), 72.1 ± 0.2 J · mol ^-1· K ^-1; in data set [2] (Octanol/TBP a, pristine), 15.0 ± 0.8 J · mol ^-1· K ^-1; in data set [2] (setting [14]), 31.6 ± 0.7 J · mol ^-1· K ^-1. The ΔCp is 1.4 kJ · mol ^-1· K ^-1 in [2] (setting [11]); 1.3 kJ · mol ^-1· K ^-1 in [2] (FS-13/TBP a, pristine); 2.3 kJ · mol ^-1· K ^-1 in data set [2] (setting [14]). Moreover, the “Americium distribution ratio at 298 K using 10 mmol · L ^-1 CyMe 4 -BTBP” value is given as 160^b in data set [3] (Cyclohex./TBP), 30^a in [3] (FS-13/TBP) and 30^c in data set [3] (Octanol/TBP). The “Solubility in a nitric acid aqueous phase” value in [4] is “not soluble above the detection limit”.
`O=S(=O)(c1ccccc1)C(F)(F)F` [FS-13, phenyl trifluoromethyl sulfone] yielded a Surface tension in data set [5] of 26.6 ± 0.01 mN · m ^-1. In data set [6], this compound returned a Density of 1.40 ± 0.01 g · cm ^-3. Further, the Flash point in data set [7] is recorded as 395 K^d.
With `O=C1CCCCC1` [Cyclohexanone, cyclohexanone], the Surface tension in data set [8] is on record as 34.4^a mN · m ^-1. Further, the Density in data set [9] is recorded as 0.95^b g · cm ^-3. Besides, the Flash point in data set [7] is reported as 317 K^a. Further, in data set [10], the Solvent in water is on record as 2.3^b wt% and the Water in solvent was 8.0^b wt%.
For `CCCCCCCCO` [1-Octanol, 1-octanol], the Surface tension in data set [8] is reported as 27.2^a mN · m ^-1. Also, the Density in data set [9] was 0.83^b g · cm ^-3. Moreover, in [7], the Flash point is 358 K^a. Moreover, in data set [10], the Solvent in water was 0.0538^b wt% and the Water in solvent is 4.2^c wt%.
